Experimental data reported in PubChem BioAssay (NCI).
Where “and” joins values, the source holds several entries; their conditions need not be identical. Equal values may be shown once.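 Five compound concentrations were applied to cells in 96-well plates for 48 hours; endpoints were derived by simple linear interpolation of the resulting dose-response curve. GI50 = concentration required for 50% inhibition of growth. TGI denotes the concentration required for complete inhibition of growth.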

What was measured:
Test in all cases: NCI anticancer screen, dose series, 48 h
[1] = test system: NCI-H460 lung
[2] = test system: OVCAR-4 ovarian
[3] = test system: HS 578T breast
[4] = test system: MALME-3M melanoma
[5] = test system: ACHN renal
[6] = test system: SN12C renal
[7] = test system: M14 melanoma
[8] = test system: HOP-92 NSCLC
[9] = test system: NCI-H23 lung
[10] = test system: U251 CNS

Compound	TGI [1]	TGI [2]	TGI [3]	TGI [4]	TGI [5]	TGI [6]	TGI [7]	TGI [8]	TGI [9]	TGI [10]	GI50 [1]	GI50 [4]	GI50 [5]	GI50 [7]	GI50 [2]	GI50 [3]	GI50 [8]	GI50 [9]	GI50 [10]	GI50 [6]
CCn1c(CCl)nc2c1C(=O)c1ccccc1C2=O	3.9 µM	3.08 µM	6.24 µM	2.41 µM	13.2 µM	2.97 µM	3.22 µM	3.75 µM	3.12 µM	3.12 µM										
C/C(=N\NC(=S)N1CCCCCC1)c1cccc2cccnc12	> 100 µM	> 21.4 µM	> 100 µM	> 61 µM	11.6 µM		14 µM	> 100 µM	15.5 µM	> 29.2 µM										
CCc1nc(N)nc(N)c1-c1ccc(Cl)c(N=[N+]=[N-])c1	> 81.7 µM	97.7 µM and > 100 µM	93.1 µM and > 100 µM	30.2 µM and 23.5 µM	> 100 µM	> 100 µM	24.1 µM and 49 µM	> 90.7 µM and 68.2 µM	> 93.8 µM and 80.9 µM	> 100 µM	0.463 µM and 1.23 µM	14 µM and 6.3 µM	2.33 µM and 4.75 µM	0.641 µM and 3.51 µM						
COc1cnc2c(c1)C(=O)c1c-2n(CCCN2CCC(O)CC2)c(=O)c2cc(Cl)ccc12	1.27 µM	3.08 µM	37.5 µM	27.9 µM	1.5 µM		1.86 µM	34.8 µM	1.74 µM	1.7 µM	0.0371 µM	14.1 µM	0.0903 µM	0.0914 µM	1.34 µM	14.1 µM	15.5 µM	0.248 µM	0.0904 µM	
COc1ccc(NCC(=O)Nn2c(-c3ccccc3)nc3ccccc3c2=O)cc1	> 100 µM	> 100 µM	> 100 µM	70.2 µM	> 100 µM	> 100 µM	> 100 µM	> 100 µM	> 100 µM	87.1 µM										
CC1SC2(CCCCC2)N(NC(=O)c2[nH]c3ccc(Br)cc3c2-c2ccccc2)C1=O (configuration not stated)	> 100 µM	90.7 µM	> 100 µM	59.3 µM	> 100 µM	30.6 µM	> 100 µM	64.8 µM	> 100 µM	> 100 µM	48.2 µM	17.2 µM	61.3 µM	64 µM	13.2 µM	70.7 µM	14.6 µM	30.7 µM	41.3 µM	4.66 µM
CC(C)(C)OC(=O)NCc1cccc(N=C=S)c1	46.1 µM	51.8 µM	> 84.8 µM	45.1 µM	67.6 µM	60.3 µM	37 µM	62.2 µM	47.6 µM	53.4 µM	20.5 µM	14.4 µM	21.1 µM	15.3 µM	16.7 µM	24.6 µM	14.6 µM	18.5 µM	23 µM	22.1 µM
c1ccc2c(c1)cc1n2CCc2c-1[nH]c1ccccc21	> 10 µM	> 10 µM	> 10 µM	> 10 µM	> 10 µM	> 10 µM	> 10 µM	> 10 µM	> 10 µM	> 10 µM										
CCSC[C@@H]1C[C@](O)(c2ccc(F)cc2)[C@@H](c2ccc(F)cc2)O1	30.2 µM	32.5 µM	37 µM	37.3 µM	32.6 µM	33.3 µM	32.4 µM	28.6 µM	46.6 µM	31.7 µM	14.8 µM	19.9 µM	18.4 µM	15.8 µM	16.3 µM	18 µM	15.2 µM	19.1 µM	17.8 µM	17.9 µM
COC(=O)[C@H](Cc1cn(C)cn1)NC(=O)[C@H](C)NC(=O)Nc1cc(C(F)(F)F)cc(C(F)(F)F)c1	> 10 µM	> 10 µM	> 10 µM	> 10 µM	> 10 µM	> 10 µM	> 10 µM	> 10 µM	> 10 µM	> 10 µM	> 10 µM	> 10 µM	> 10 µM	> 10 µM	> 10 µM	> 10 µM	> 10 µM	> 10 µM	> 10 µM	> 10 µM
Cn1cc(C2=C(Nc3ccccc3)C(=O)NC2=O)c2ccccc21	> 25 µM	> 25 µM	> 25 µM	> 25 µM	> 25 µM	> 25 µM	> 25 µM	> 25 µM	> 25 µM	> 25 µM	> 25 µM	> 25 µM	> 25 µM	> 25 µM	> 21.8 µM	> 25 µM	> 25 µM	> 25 µM	> 25 µM	> 25 µM
COC1CC(N)C(O)C(C)O1 (configuration not stated)	> 100 µM	> 100 µM	> 100 µM	> 100 µM	> 100 µM	> 100 µM	> 100 µM	> 100 µM	> 100 µM	> 100 µM										
COc1cc2c(c(OC)c1OC)-c1ccc(N=NC(N)=S)c(=O)cc1[C@@H](NC(C)=O)CC2	12.2 µM	> 100 µM		> 100 µM	> 100 µM	> 100 µM		98.8 µM	> 100 µM	> 100 µM	0.418 µM		5.08 µM		1.43 µM	0.294 µM	1.97 µM	0.347 µM	0.426 µM	1.52 µM
C[C@@H](CO)NC(=O)c1cc(-c2ccc(Cl)cc2)nn(-c2cnn(C)c2)c1=O	> 100 µM	> 100 µM	> 100 µM	45 µM	67.2 µM	> 100 µM	> 100 µM	> 100 µM	> 100 µM	> 100 µM	30 µM	17.8 µM	15.4 µM	31.1 µM	45.9 µM	24.8 µM	16.6 µM	27.9 µM	42.9 µM	19.3 µM
Cc1cccc2c3c(sc12)C(c1ccc(F)cc1)C(C#N)=C(N)O3 (configuration not stated)	2.52 µM	17.1 µM	1.95 µM	19 µM	13.2 µM	11.7 µM	11.7 µM	8.26 µM	12 µM	12.6 µM	0.0537 µM	0.08 µM	0.0658 µM	0.0976 µM	0.528 µM	0.0482 µM	1.07 µM	0.127 µM	0.13 µM	0.159 µM
